Bridge positions count the residues as written; N and C are the ends. Peptide text beside a SMILES is read from it.
Tests used:
[1] = Liposome centrifugation assay, POPG liposomes; type: physicochemical; settings: LUVs extruded through 0.1 μm filters, 10 mM HEPES pH 7.4, 150 mM NaCl; 10 μM toxin, 1 h room temperature, 30 min at 100,000 g; unbound toxin in supernatant by RP-HPLC; fit to partition equilibrium equation
Description: To investigate whether the micelle-binding interface identified by NMR-CSM faithfully reports on the lipid-binding interface of the peptide we used a previously reported liposome centrifugation assay[30] to study the interaction between VSTx1 and phospholipids with different head groups. VSTx1 was incubated with liposomes of different composition, then the liposomes were pelleted using ultracentrifugation and the amount of unbound VSTx1 in the supernatant was determined using reverse-phase (RP) HPLC (Fig. 4a,b). Partition coefficients (Kp) for binding of VSTx1 to liposomes were calculated by fitting to the partition equilibrium equation (see Eqn (3) in Materials and Methods). The Kp for binding to 1-palmitoyl-2-oleoyl-sn-glycero-3-phosphoglycerol (POPG) liposomes was 2.4 × 10^5 while the Kp values for binding to POPC or 1-palmitoyl-2-oleoyl-sn-glycero-3-phosphoethanolamine (POPE) liposomes were close to 0 (both <10^2) (Fig. 4e).
Large unilamellar vesicles (LUVs) were prepared by drying lipids (POPG and/or POPC, 25 mg/mL) under nitrogen gas, drying the lipid pellet under vacuum, and resuspending the lipids by vortexing for 1 h in an aqueous buffer containing 10 mM HEPES pH 7.4, and 150 mM NaCl. Vesicles were extruded 20 times using 0.1 μm polycarbonate filters (Avanti Polar Lipids, Inc.). Aqueous solutions of the toxin (10 μM) were incubated with varying amounts of vesicles for 1 h at room temperature, then the vesicles were centrifuged for 30 min at 100,000 g before the toxin concentration in the aqueous phase was determined. Aqueous concentrations of VSTx1 were quantified by RP-HPLC using a monolithic C18 column (4.6 × 100 mm). The toxin was eluted with a linear gradient of 10–50% solvent B (0.046% TFA in acetonitrile) in solvent A (0.05% TFA in water) over 10 min at a flow rate of 3 ml/min. The partition coefficients (Kp) for the binding of VSTx1 to liposomes were calculated by fitting to the partition equilibrium equation: […]

[2] = target: isolated voltage-sensor domain of the voltage-gated potassium channel KvAP (VSDK), wild type (UniProt Q9YDF8); assay: pull-down

## CSCC[C@@H]1NC(=O)[C@H](Cc2ccccc2)NC(=O)[C@H](CCCCN)NC(=O)CNC(=O)[C@@H](NC(=O)[C@H](CCC(=O)O)NC(=O)[C@@H](N)CO)CSSC[C@@H]2NC(=O)[C@@H]3CSSC[C@@H](C(=O)N[C@H](C(=O)N[C@@H](CC(C)C)C(=O)N[C@@H](C)C(=O)N[C@@H](CO)C(=O)N4CCC[C@H]4C(=O)N[C@@H](Cc4ccccc4)C(=O)O)C(C)C)NC(=O)[C@H](Cc4c[nH]c5ccccc45)NC(=O)[C@H](CCCCN)NC(=O)[C@H](Cc4c[nH]c5ccccc45)NC(=O)[C@H](CCCNC(=N)N)NC(=O)[C@H](CO)NC(=O)[C@H](CO)NC(=O)[C@H](CSSC[C@H](NC(=O)[C@H](C)NC(=O)[C@H](Cc4c[nH]c5ccccc45)NC1=O)C(=O)N[C@@H](CCCCN)C(=O)N[C@@H](CC(N)=O)C(=O)N[C@@H](CO)C(=O)N[C@@H](CC(N)=O)C(=O)N[C@@H](CC(=O)O)C(=O)N3)NC(=O)[C@H](C(C)C)NC(=O)[C@H](CC(C)C)NC(=O)[C@H](CC(=O)O)NC(=O)[C@H](CCCCN)NC2=O [K8A] (H-SECGKFMWACKNSNDCCKDLVCSSRWKWCVLASPF-OH; disulfide 3-17, 10-22, 16-29)
[1]
  Partition coefficient (Kp) for binding to POPG liposomes: 0.38 × 10^5

## CSCC[C@@H]1NC(=O)[C@H](Cc2ccccc2)NC(=O)[C@H](CCCCN)NC(=O)CNC(=O)[C@@H](NC(=O)[C@H](CCC(=O)O)NC(=O)[C@@H](N)CO)CSSC[C@@H]2NC(=O)[C@@H]3CSSC[C@@H](C(=O)N[C@H](C(=O)N[C@@H](C)C(=O)N[C@@H](C)C(=O)N[C@@H](CO)C(=O)N4CCC[C@H]4C(=O)N[C@@H](Cc4ccccc4)C(=O)O)C(C)C)NC(=O)[C@H](Cc4c[nH]c5ccccc45)NC(=O)[C@H](CCCCN)NC(=O)[C@H](Cc4c[nH]c5ccccc45)NC(=O)[C@H](CCCNC(=N)N)NC(=O)[C@H](CO)NC(=O)[C@H](CO)NC(=O)[C@H](CSSC[C@H](NC(=O)[C@H](CCCCN)NC(=O)[C@H](Cc4c[nH]c5ccccc45)NC1=O)C(=O)N[C@@H](CCCCN)C(=O)N[C@@H](CC(N)=O)C(=O)N[C@@H](CO)C(=O)N[C@@H](CC(N)=O)C(=O)N[C@@H](CC(=O)O)C(=O)N3)NC(=O)[C@H](C(C)C)NC(=O)[C@H](CC(C)C)NC(=O)[C@H](CC(=O)O)NC(=O)[C@H](CCCCN)NC2=O [L30A] (H-SECGKFMWKCKNSNDCCKDLVCSSRWKWCVAASPF-OH; disulfide 3-17, 10-22, 16-29)
[1]
  Partition coefficient (Kp) for binding to POPG liposomes: 0.55 × 10^5

## CSCC[C@@H]1NC(=O)[C@H](Cc2ccccc2)NC(=O)[C@H](CCCCN)NC(=O)CNC(=O)[C@@H](NC(=O)[C@H](CCC(=O)O)NC(=O)[C@@H](N)CO)CSSC[C@@H]2NC(=O)[C@@H]3CSSC[C@@H](C(=O)N[C@H](C(=O)N[C@@H](CC(C)C)C(=O)N[C@@H](C)C(=O)N[C@@H](CO)C(=O)N4CCC[C@H]4C(=O)N[C@@H](Cc4ccccc4)C(=O)O)C(C)C)NC(=O)[C@H](Cc4c[nH]c5ccccc45)NC(=O)[C@H](CCCCN)NC(=O)[C@H](Cc4c[nH]c5ccccc45)NC(=O)[C@H](CCCNC(=N)N)NC(=O)[C@H](CO)NC(=O)[C@H](CO)NC(=O)[C@H](CSSC[C@H](NC(=O)[C@H](CCCCN)NC(=O)[C@H](Cc4c[nH]c5ccccc45)NC1=O)C(=O)N[C@@H](CCCCN)C(=O)N[C@@H](CC(N)=O)C(=O)N[C@@H](CO)C(=O)N[C@@H](C)C(=O)N[C@@H](CC(=O)O)C(=O)N3)NC(=O)[C@H](C(C)C)NC(=O)[C@H](CC(C)C)NC(=O)[C@H](CC(=O)O)NC(=O)[C@H](CCCCN)NC2=O [N13A] (H-SECGKFMWKCKNSADCCKDLVCSSRWKWCVLASPF-OH; disulfide 3-17, 10-22, 16-29)
[1]
  Partition coefficient (Kp) for binding to POPG liposomes: 2.7 × 10^5

## CSCC[C@@H]1NC(=O)[C@H](Cc2ccccc2)NC(=O)[C@H](CCCCN)NC(=O)CNC(=O)[C@@H](NC(=O)[C@H](CCC(=O)O)NC(=O)[C@@H](N)CO)CSSC[C@@H]2NC(=O)[C@@H]3CSSC[C@@H](C(=O)N[C@H](C(=O)N[C@@H](CC(C)C)C(=O)N[C@@H](C)C(=O)N[C@@H](CO)C(=O)N4CCC[C@H]4C(=O)N[C@@H](Cc4ccccc4)C(=O)O)C(C)C)NC(=O)[C@H](Cc4c[nH]c5ccccc45)NC(=O)[C@H](CCCCN)NC(=O)[C@H](Cc4c[nH]c5ccccc45)NC(=O)[C@H](C)NC(=O)[C@H](CO)NC(=O)[C@H](CO)NC(=O)[C@H](CSSC[C@H](NC(=O)[C@H](CCCCN)NC(=O)[C@H](Cc4c[nH]c5ccccc45)NC1=O)C(=O)N[C@@H](CCCCN)C(=O)N[C@@H](CC(N)=O)C(=O)N[C@@H](CO)C(=O)N[C@@H](CC(N)=O)C(=O)N[C@@H](CC(=O)O)C(=O)N3)NC(=O)[C@H](C(C)C)NC(=O)[C@H](CC(C)C)NC(=O)[C@H](CC(=O)O)NC(=O)[C@H](CCCCN)NC2=O [R24A] (H-SECGKFMWKCKNSNDCCKDLVCSSAWKWCVLASPF-OH; disulfide 3-17, 10-22, 16-29)
[1]
  Partition coefficient (Kp) for binding to POPG liposomes: 0.11 × 10^5

## CSCC[C@@H]1NC(=O)[C@H](Cc2ccccc2)NC(=O)[C@H](CCCCN)NC(=O)CNC(=O)[C@@H](NC(=O)[C@H](CCC(=O)O)NC(=O)[C@@H](N)CO)CSSC[C@@H]2NC(=O)[C@@H]3CSSC[C@@H](C(=O)N[C@H](C(=O)N[C@@H](CC(C)C)C(=O)N[C@@H](C)C(=O)N[C@@H](CO)C(=O)N4CCC[C@H]4C(=O)N[C@@H](Cc4ccccc4)C(=O)O)C(C)C)NC(=O)[C@H](Cc4c[nH]c5ccccc45)NC(=O)[C@H](CCCCN)NC(=O)[C@H](Cc4c[nH]c5ccccc45)NC(=O)[C@H](CCCNC(=N)N)NC(=O)[C@H](CO)NC(=O)[C@H](CO)NC(=O)[C@H](CSSC[C@H](NC(=O)[C@H](CCCCN)NC(=O)[C@H](C)NC1=O)C(=O)N[C@@H](CCCCN)C(=O)N[C@@H](CC(N)=O)C(=O)N[C@@H](CO)C(=O)N[C@@H](CC(N)=O)C(=O)N[C@@H](CC(=O)O)C(=O)N3)NC(=O)[C@H](C(C)C)NC(=O)[C@H](CC(C)C)NC(=O)[C@H](CC(=O)O)NC(=O)[C@H](CCCCN)NC2=O [W7A] (H-SECGKFMAKCKNSNDCCKDLVCSSRWKWCVLASPF-OH; disulfide 3-17, 10-22, 16-29)
[1]
  Partition coefficient (Kp) for binding to POPG liposomes: 0.77 × 10^5

## VSTx1 K8A (peptide)
[2]
  percent decrease in binding against wild-type VSTx1: 20%

## VSTx1 W7A (peptide)
[2]
  percent decrease in binding against wild-type VSTx1: 58%
